Measurements as given in US20240148821A1, “PHARMACEUTICAL USE OF CYCLIC PEPTIDE COMPOUND” (CHUGAI SEIYAKU KABUSHIKI KAISHA, priority 2021, published 2024).
Numbered stars: 1 amine (or outer) side, 2 acyl side, 3 side chain; on linkers, the order of the positions; unused ones are H or OH. Bridge positions count the residues as written; N and C are the ends. Square brackets hold non-standard residues; d marks the D form. Peptide text beside a SMILES is read from it. * marks the point of attachment. hPhe(3,5-F2-4-CF3) = N[C@@H](CCc1cc(F)c(C(F)(F)F)c(F)c1)C(=O)O; hPhe(3-Cl-4-CF3) = N[C@@H](CCc1ccc(C(F)(F)F)c(Cl)c1)C(=O)O; hPhe(3-F,4-CF3) = N[C@@H](CCc1ccc(C(F)(F)F)c(F)c1)C(=O)O; NMePhe(4-CF3) = CN[C@@H](Cc1ccc(C(F)(F)F)cc1)C(=O)O; hPhe(4-CF3) = N[C@@H](CCc1ccc(C(F)(F)F)cc1)C(=O)O; NEtPhe(4-Me) = CCN[C@@H](Cc1ccc(C)cc1)C(=O)O; NMePhe(4-Cl) = CN[C@@H](Cc1ccc(Cl)cc1)C(=O)O; NMePhe(4-Me) = CN[C@@H](Cc1ccc(C)cc1)C(=O)O; NMedβ3hAla = C[C@H](CC(=O)[*:2])N(C)[*:1]; NMeGly(cPent) = CN[C@H](C(=O)O)C1CCCC1; NMeCha = CN[C@@H](CC1CCCCC1)C(=O)O; Hyp = O=C(O)[C@@H]1C[C@@H](O)CN1; NMeAhp(2) = CCCCC[C@H](NC)C(=O)O; NMeChg = CN[C@H](C(=O)O)C1CCCCC1; NMeI = CC[C@H](C)[C@H](NC)C(=O)O; NMeD = CN[C@@H](CC(=O)O)C(=O)O; CH2CONHtBu = CC(C)(C)NC(=O)C*; NMeL = CN[C@@H](CC(C)C)C(=O)O; NMeV = CN[C@H](C(=O)O)C(C)C; Azetidin(1-yl) = C1CN(*)C1; NMeS = CN[C@@H](CO)C(=O)O; Morpholide = C1CN(*)CCO1; NMeA = CN[C@@H](C)C(=O)O; NMeAib = CNC(C)(C)C(=O)O; Nle = CCCC[C@H](N)C(=O)O; Piperidide = C1CCN(*)CC1; dNMeA = CN[C@H](C)C(=O)O; Ac5c = NC1(C(=O)O)CCCC1; Aze = O=C(O)[C@@H]1CCN1; Sar = CNCC(=O)O

How the values were obtained:
[1] = target: protein-protein interaction between Kras and SOS1 (biotin-tagged human Kras loaded with GDP, His-tagged human SOS1) (Homo sapiens (Human), UniProt P01116, G12D); experiment: Protein-protein interaction inhibition between Kras and SOS1 (KrasG12D-SOS PPI) using AlphaScreen; type: biochemical; settings: AlphaScreen; biotin-tagged human Kras loaded with GDP, His-tagged human SOS1; read-out: KRAS G12D-SOS PPI IC50;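 note: kras produced in E. coli, Ni-coupled donor beads and streptavidin acceptor beads, excitation 680 nm with emission detected at 520–620 nm via singlet oxygen transfer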
[2] = test system: Human pancreatic cancer cell line AsPC-1 (G12D mutation Kras); experiment: AsPC-1 cell growth inhibition (AsPC-1 CGI); type: cell-based; settings: read-out: AsPC-1 cell growth inhibition, 50% growth inhibitory concentration (IC50 value); 96 hours, CellTiter-Glo, values classified in ranges
Method: Test compounds were serially dilated with dimethyl sulfoxide, and 200 nL was then dispensed to a U-bottom 96-well plate using Labcyte Echo. […] The cell suspension was dispensed to a. plate containing a test compound at 100 μL per well and incubated at 37° C. in a 5% carbon dioxide gas incubator. 96 hours later, 80 μL of CellTiter-Glo (Promega) was added to each well and fluorescence was measured.

SMILES	IC50 [1] [nM]	IC50 [2] [nM]
CC[C@H](C)[C@@H]1NC(=O)[C@H](CC(C)C)N(C)C(=O)C[C@@H](C(=O)N2CCCCC2)N(C)C(=O)[C@H](C(C)C)N(C)C(=O)C2(CCCC2)NC(=O)[C@@H]2CCCN2C(=O)[C@H](CCc2ccc(C(F)(F)F)c(Cl)c2)NC(=O)CN(C)C(=O)[C@H](C)N(C)C(=O)[C@@H]2CCN2C(=O)[C@H](C)N(C)C1=O [Compound 1674] ([NMeL]I[NMeA][Aze][NMeA][Sar][hPhe(3-Cl-4-CF3)]P[Ac5c][NMeV][NMeD]-Piperidide; lactam N-11)	58	> 500
CC[C@H](C)[C@@H]1NC(=O)[C@H](CC(C)C)N(C)C(=O)C[C@@H](C(=O)N2CCC2)N(C)C(=O)[C@H](C2CCCC2)N(C)C(=O)C2(CCCC2)NC(=O)[C@@H]2CCCN2C(=O)[C@H](CCc2cc(F)c(C(F)(F)F)c(F)c2)NC(=O)CN(C)C(=O)[C@H](CC2CCCCC2)N(C)C(=O)[C@@H]2CCN2C(=O)[C@H](C)N(C)C1=O [Compound 1070] ([NMeL]I[NMeA][Aze][NMeCha][Sar][hPhe(3,5-F2-4-CF3)]P[Ac5c][NMeGly(cPent)][NMeD]-{Azetidin(1-yl)}; lactam N-11)	0.91	≤ 20
CC[C@H](C)[C@@H]1NC(=O)[C@H](CC(C)C)N(C)C(=O)C[C@@H](C(=O)N(C)C)N(C)C(=O)[C@H](C2CCCC2)N(C)C(=O)C2(CCCC2)NC(=O)[C@@H]2CCCN2C(=O)[C@H](CCc2ccc(C(F)(F)F)c(F)c2)NC(=O)CN(C)C(=O)[C@H](CC2CCCCC2)N(C)C(=O)[C@@H]2CCN2C(=O)[C@H](C)N(C)C1=O [Compound 334] ([NMeL]I[NMeA][Aze][NMeCha][Sar][hPhe(3-F,4-CF3)]P[Ac5c][NMeGly(cPent)][NMeD]-NMe2; lactam N-11)	0.5	≤ 20
CC[C@H](C)[C@@H]1NC(=O)[C@H](CC(C)C)N(C)C(=O)C[C@@H](C(=O)N2CCCCC2)N(C)C(=O)[C@H](C2CCCCC2)N(C)C(=O)C2(CCCC2)NC(=O)[C@H](COCC(=O)NC(C)(C)C)N(C)C(=O)[C@H](CCc2ccc(C(F)(F)F)c(Cl)c2)NC(=O)CN(C)C(=O)[C@H](CC2CCCCC2)N(C)C(=O)CN(C)C(=O)CN(C)C1=O [Compound 727] ([NMeL]I[Sar][Sar][NMeCha][Sar][hPhe(3-Cl-4-CF3)][NMeS](CH2CONHtBu)[Ac5c][NMeChg][NMeD]-Piperidide; lactam N-11)	6.9	> 500
CCCCC[C@H]1C(=O)N[C@@H]([C@@H](C)CC)C(=O)N[C@@H](C)C(=O)N2CC[C@H]2C(=O)N(C)[C@@H](Cc2ccc(C)cc2)C(=O)N(C)CC(=O)N[C@@H](CCc2ccc(C(F)(F)F)c(Cl)c2)C(=O)N2CCC[C@H]2C(=O)NC2(CCCC2)C(=O)N(C)[C@@H](C2CCCC2)C(=O)N(C)[C@H](C(=O)N(C)C)CC(=O)N1C [Compound 1059] ([NMeAhp(2)]IA[Aze][NMePhe(4-Me)][Sar][hPhe(3-Cl-4-CF3)]P[Ac5c][NMeGly(cPent)][NMeD]-NMe2; lactam N-11)	0.64	≤ 20
CC[C@H](C)[C@@H]1NC(=O)[C@H](CC(C)C)N(C)C(=O)C[C@@H](C)N(C)C(=O)[C@H](CC(C)C)NC(=O)C(C)(C)N(C)C(=O)[C@H](CC(C)C)NC(=O)[C@H](CCc2ccc(C(F)(F)F)cc2)NC(=O)CN(C)C(=O)[C@H](CC2CCCCC2)N(C)C(=O)CN(C)C(=O)CN(C)C1=O [Compound 262] (cyclo(I[Sar][Sar][NMeCha][Sar][hPhe(4-CF3)]L[NMeAib]L[NMedβ3hAla][NMeL]))	43	> 500
CC[C@H](C)[C@@H]1NC(=O)[C@H](CC(C)C)N(C)C(=O)C[C@@H](C(=O)N(C)C)N(C)C(=O)[C@H](C2CCCC2)N(C)C(=O)C2(CCCC2)NC(=O)[C@@H]2CCCN2C(=O)[C@H](CCc2cc(F)c(C(F)(F)F)c(F)c2)NC(=O)CN(C)C(=O)[C@H](Cc2ccc(C)cc2)N(C)C(=O)[C@@H]2CCN2C(=O)[C@H](C)N(C)C1=O [Compound 965] ([NMeL]I[NMeA][Aze][NMePhe(4-Me)][Sar][hPhe(3,5-F2-4-CF3)]P[Ac5c][NMeGly(cPent)][NMeD]-NMe2; lactam N-11)	0.86	≤ 20
CCCC[C@@H]1NC(=O)C(C)(C)N(C)C(=O)[C@H](CC(C)C)NC(=O)[C@H](CCc2ccc(C(F)(F)F)c(F)c2)NC(=O)CN(C)C(=O)[C@H](Cc2ccc(Cl)cc2)N(C)C(=O)CN(C)C(=O)CN(C)C(=O)[C@H]([C@@H](C)CC)NC(=O)[C@H](CC(C)C)N(C)C(=O)C[C@@H](C)N(C)C1=O [Compound 83] (cyclo(I[Sar][Sar][NMePhe(4-Cl)][Sar][hPhe(3-F,4-CF3)]L[NMeAib][Nle][NMedβ3hAla][NMeL]))	110	> 500
CCO[C@@H]1C[C@H]2C(=O)NC3(CCCC3)C(=O)N(C)[C@@H](C3CCCC3)C(=O)N(C)[C@H](C)CC(=O)N(C)[C@@H](CC(C)C)C(=O)N[C@@H]([C@@H](C)CC)C(=O)N(C)CC(=O)N(C)CC(=O)N(C)[C@@H](Cc3ccc(C(F)(F)F)cc3)C(=O)N(C)CC(=O)N[C@@H](CCc3cc(F)c(C(F)(F)F)c(F)c3)C(=O)N2C1 [Compound 66] (cyclo([Ac5c][NMeGly(cPent)][NMedβ3hAla][NMeL]I[Sar][Sar][NMePhe(4-CF3)][Sar][hPhe(3,5-F2-4-CF3)][Hyp](Et)))	3.6	≤ 20
CC[C@H](C)[C@@H]1NC(=O)[C@H](CC(C)C)N(C)C(=O)C[C@@H](C(=O)N(C)C)N(C)C(=O)[C@H]([C@@H](C)CC)N(C)C(=O)C2(CCCC2)NC(=O)[C@@H]2CCCN2C(=O)[C@H](CCc2ccc(C(F)(F)F)c(Cl)c2)NC(=O)CN(C)C(=O)[C@H](Cc2ccc(C)cc2)N(CC)C(=O)[C@@H]2CCN2C(=O)[C@H](C)N(C)C1=O [Compound 866] ([NMeL]I[NMeA][Aze][NEtPhe(4-Me)][Sar][hPhe(3-Cl-4-CF3)]P[Ac5c][NMeI][NMeD]-NMe2; lactam N-11)	1.2	≤ 20
CC[C@H](C)[C@@H]1NC(=O)[C@H](CC(C)C)N(C)C(=O)C[C@@H](C(=O)N2CCCCC2)N(C)C(=O)[C@H](C(C)C)N(C)C(=O)[C@H](C(C)C)NC(=O)[C@@H]2CCCN2C(=O)[C@H](CCc2ccc(C(F)(F)F)c(Cl)c2)NC(=O)CN(C)C(=O)[C@H](CC2CCCCC2)N(C)C(=O)[C@@H]2CCN2C(=O)[C@H](C)N(C)C1=O [Compound 741] ([NMeL]I[NMeA][Aze][NMeCha][Sar][hPhe(3-Cl-4-CF3)]PV[NMeV][NMeD]-Piperidide; lactam N-11)	86	> 500
CC[C@H](C)[C@@H]1NC(=O)[C@H](CC(C)C)N(C)C(=O)C[C@@H](C(=O)N2CCOCC2)N(C)C(=O)[C@H]([C@@H](C)CC)N(C)C(=O)C2(CCCC2)NC(=O)[C@@H]2CCCN2C(=O)[C@H](CCc2cc(F)c(C(F)(F)F)c(F)c2)NC(=O)CN(C)C(=O)[C@H](Cc2ccc(C)cc2)N(CC)C(=O)[C@@H]2CCN2C(=O)[C@H](C)N(C)C1=O [Compound 1209] ([NMeL]I[NMeA][Aze][NEtPhe(4-Me)][Sar][hPhe(3,5-F2-4-CF3)]P[Ac5c][NMeI][NMeD]-Morpholide; lactam N-11)	0.85	≤ 20
CC[C@H](C)[C@@H]1NC(=O)[C@H](C)N(C)C(=O)C[C@@H](C(=O)N2CCCCC2)N(C)C(=O)[C@H](C(C)C)N(C)C(=O)C2(CCCC2)NC(=O)[C@@H]2CCCN2C(=O)[C@H](CCc2ccc(C(F)(F)F)c(Cl)c2)NC(=O)[C@@H](C)N(C)C(=O)[C@H](CC2CCCCC2)N(C)C(=O)[C@@H]2CCCN2C(=O)CN(C)C1=O [Compound 307] ([NMeA]I[Sar]P[NMeCha][dNMeA][hPhe(3-Cl-4-CF3)]P[Ac5c][NMeV][NMeD]-Piperidide; lactam N-11)	4.4	> 500
